Data from US4684664A, “Derivatives of β-(4-isocyano-1,2,3,4-diepoxycyclopentyl) acrylic acid” (Kureha Kagaku Kogyo Kabushiki Kaisha, priority 1984, dated 1987).
≈ marks a conversion by molar mass, not a printed value.

Columns and labels:
Format in all cases: cell-based
Enterobacter cloacae 963 = experiment: Antibacterial activity, agar-dilution MIC, organism No. 24; conditions: Enterobacter cloacae, 963; Organism No. 24, bouillon-agar; read-out: Minimum Inhibitory Concentration
Text: (§1) Agar-dilution method was used for determination of the antibacterial activity and antifungal activity while using bouillon-agar culture medium, and the minimum inhibitory concentration of the specimen was expressed by μg/ml of the culture medium.

[1] = tested on: Proteus morganii IFO 3848; experiment: Antibacterial activity, agar-dilution MIC, organism No. 18; conditions: Morganella morganii, IFO3848; Organism No. 18, bouillon-agar; read-out: Minimum Inhibitory Concentration
Text: as §1

Proteus vulgaris OX-19 = experiment: Antibacterial activity, agar-dilution MIC, organism No. 20; conditions: Proteus vulgaris, OX19; Organism No. 20, bouillon-agar; read-out: Minimum Inhibitory Concentration
Text: as §1

[2] = tested on: Proteus rettgeri IFO 3850; experiment: Antibacterial activity, agar-dilution MIC, organism No. 22; conditions: Providencia rettgeri, IFO3850; Organism No. 22, bouillon-agar; read-out: Minimum Inhibitory Concentration
Text: as §1

[3] = tested on: Pseudomonas aeruginosa NCTC 10490; experiment: Antibacterial activity, agar-dilution MIC, organism No. 16; conditions: Pseudomonas aeruginosa, NCTC10490; Organism No. 16, bouillon-agar; read-out: Minimum Inhibitory Concentration
Text: as §1

[4] = tested on: Staphylococcus aureus FDA 209PJc-1; experiment: Antibacterial activity, agar-dilution MIC, organism No. 1; conditions: Staphylococcus aureus, FDA209PJC1; Organism No. 1, bouillon-agar; read-out: Minimum Inhibitory Concentration
Text: as §1

[5] = tested on: Enterobacter aerogenes ATCC 13048; experiment: Antibacterial activity, agar-dilution MIC, organism No. 23; conditions: Klebsiella aerogenes, ATCC13048; Organism No. 23, bouillon-agar; read-out: Minimum Inhibitory Concentration
Text: as §1

[6] = tested on: Salmonella enteritidis G 14; experiment: Antibacterial activity, agar-dilution MIC, organism No. 12; conditions: Salmonella enterica, ENTERITIDIS; Organism No. 12, bouillon-agar; read-out: Minimum Inhibitory Concentration
Text: as §1

[7] = tested on: Micrococcus luteus ATCC 9341; experiment: Antibacterial activity, agar-dilution MIC, organism No. 25; conditions: Micrococcus luteus, ATCC9341; Organism No. 25, bouillon-agar; read-out: Minimum Inhibitory Concentration
Text: as §1

[8] = tested on: Klebsiella pneumoniae PCI-602; experiment: Antibacterial activity, agar-dilution MIC, organism No. 7; conditions: Klebsiella pneumoniae, PCI602; Organism No. 7, bouillon-agar; read-out: Minimum Inhibitory Concentration
Text: as §1

[9] = tested on: Pseudomonas aeruginosa PAO 1; experiment: Antibacterial activity, agar-dilution MIC, organism No. 17; conditions: Pseudomonas aeruginosa, PAO1; Organism No. 17, bouillon-agar; read-out: Minimum Inhibitory Concentration
Text: as §1

[10] = tested on: Salmonella paratyphi-A 1015; experiment: Antibacterial activity, agar-dilution MIC, organism No. 10; conditions: Salmonella enterica, PARATYPHI, read-out: Minimum Inhibitory Concentration
Text: as §1

[11] = tested on: Streptococcus pyogenes IFO 3340; experiment: Antibacterial activity, agar-dilution MIC, organism No. 26; conditions: Streptococcus pyogenes, IFO3340; Organism No. 26, bouillon-agar; read-out: Minimum Inhibitory Concentration
Text: as §1

[12] = tested on: Staphylococcus aureus Terajima; experiment: Antibacterial activity, agar-dilution MIC, organism No. 2; conditions: Staphylococcus aureus; Organism No. 2, bouillon-agar; read-out: Minimum Inhibitory Concentration
Text: as §1

[13] = tested on: Aspergillus niger IFO 6342; experiment: Antifungal activity, agar-dilution MIC, organism No. 30; conditions: Aspergillus niger, IFO6342; Organism No. 30, bouillon-agar; read-out: Minimum Inhibitory Concentration
Text: as §1

[14] = tested on: Streptococcus faecium IFO 3826; experiment: Antibacterial activity, agar-dilution MIC, organism No. 27; conditions: Enterococcus faecium, IFO3826; Organism No. 27, bouillon-agar; read-out: Minimum Inhibitory Concentration
Text: as §1

[15] = tested on: Salmonella typhimurium IID 971; experiment: Antibacterial activity, agar-dilution MIC, organism No. 8; conditions: Salmonella enterica; Organism No. 8, bouillon-agar; read-out: Minimum Inhibitory Concentration
Text: as §1

[16] = tested on: Candida albicans IAM 4905; experiment: Antifungal activity, agar-dilution MIC, organism No. 29; conditions: Candida albicans, IAM4905; Organism No. 29, bouillon-agar; read-out: Minimum Inhibitory Concentration
Text: as §1

[17] = tested on: Bacillus subtilis ATCC 6633; experiment: Antibacterial activity, agar-dilution MIC, organism No. 14; conditions: Bacillus subtilis, ATCC6633; Organism No. 14, bouillon-agar; read-out: Minimum Inhibitory Concentration
Text: as §1

[18] = tested on: Salmonella shottmuelleri 8006; experiment: Antibacterial activity, agar-dilution MIC, organism No. 11; conditions: Salmonella, 8006; Organism No. 11, bouillon-agar; read-out: Minimum Inhibitory Concentration
Text: as §1

[19] = tested on: Escherichia coli NIHJ-JC-2; experiment: Antibacterial activity, agar-dilution MIC, organism No. 5; conditions: Escherichia coli, NIHJJC2; Organism No. 5, bouillon-agar; read-out: Minimum Inhibitory Concentration
Text: as §1

[20] = tested on: Escherichia coli K12 C600 IAM 1264; experiment: Antibacterial activity, agar-dilution MIC, organism No. 6; conditions: Escherichia coli, IAM1264; Organism No. 6, bouillon-agar; read-out: Minimum Inhibitory Concentration
Text: as §1

Salmonella typhi 901 = experiment: Antibacterial activity, agar-dilution MIC, organism No. 9; conditions: Salmonella enterica, TYPHI, read-out: Minimum Inhibitory Concentration
Text: as §1

Proteus vulgaris HX-19 = experiment: Antibacterial activity, agar-dilution MIC, organism No. 21; conditions: Proteus vulgaris, HX19; Organism No. 21, bouillon-agar; read-out: Minimum Inhibitory Concentration
Text: as §1

[21] = tested on: Proteus mirabilis IFO 3849; experiment: Antibacterial activity, agar-dilution MIC, organism No. 19; conditions: Proteus mirabilis, IFO3849; Organism No. 19, bouillon-agar; read-out: Minimum Inhibitory Concentration
Text: as §1

[22] = tested on: Pseudomonas aeruginosa IFO 3445; experiment: Antibacterial activity, agar-dilution MIC, organism No. 15; conditions: Pseudomonas aeruginosa, IFO3445; Organism No. 15, bouillon-agar; read-out: Minimum Inhibitory Concentration
Text: as §1

[23] = tested on: Staphylococcus aureus MS 353; experiment: Antibacterial activity, agar-dilution MIC, organism No. 3; conditions: Staphylococcus aureus, MS353; Organism No. 3, bouillon-agar; read-out: Minimum Inhibitory Concentration
Text: as §1

[24] = tested on: Streptococcus pyogenes Cook; experiment: Antibacterial activity, agar-dilution MIC, organism No. 4; conditions: Streptococcus pyogenes; Organism No. 4, bouillon-agar; read-out: Minimum Inhibitory Concentration
Text: as §1

[25] = tested on: Mycoplasma pneumoniae IID817; experiment: Antimycoplasmal activity, MIC by phenol red colour change, organism No. 28; conditions: Mycoplasma, IID817; Organism No. 28, PPLO broth + 1% glucose, 37° C.; read-out: Minimum Inhibitory Concentration (MIC)
Description: Mycoplasma pneumoniae IID817 was used as the test microorganism in a culture medium prepared by adding 1% of glucose to "PPLO broth (manufactured by Difco Co.) liquid culture medium" at 37° C. with phenol red as an indicator, thereby culturing the test microorganism.

SMILES | MIC (Enterobacter cloacae 963) [µg/mL] | MIC [1] [µg/mL] | MIC (Proteus vulgaris OX-19) [µg/mL] | MIC [2] [µg/mL] | MIC [3] [µg/mL] | MIC [4] [µg/mL] | MIC [6] [µg/mL] | MIC [8] [µg/mL] | MIC [9] [µg/mL] | MIC [10] [µg/mL] | MIC [11] [µg/mL] | MIC [12] [µg/mL] | MIC [13] [µg/mL] | MIC [14] [µg/mL] | MIC [15] [µg/mL] | MIC [16] [µg/mL] | MIC [17] [µg/mL] | MIC [18] [µg/mL] | MIC [19] [µg/mL] | MIC [20] [µg/mL] | other results
[C-]#[N+]C12CC3(/C=C/C(=O)N4CCN(C)CC4)OC3C1O2 (stereo not drawn) [compound 23] | 200 (≈ 726 µM) | 12.5 (≈ 45.4 µM) | 25 (≈ 90.8 µM) | > 200 | > 200 | 200 (≈ 726 µM) | 25 (≈ 90.8 µM) | 200 (≈ 726 µM) | > 200 | 25 (≈ 90.8 µM) | 50 (≈ 182 µM) | > 200 | 3.13 (≈ 11.4 µM) | 100 (≈ 363 µM) | 50 (≈ 182 µM) | 1.56 (≈ 5.67 µM) | 200 (≈ 726 µM) | 50 (≈ 182 µM) | 50 (≈ 182 µM) | 50 (≈ 182 µM) | MIC [5]: > 200 µg/mL; MIC [7]: < 0.05 µg/mL; MIC (Salmonella typhi 901): 12.5 µg/mL (≈ 45.4 µM); MIC (Proteus vulgaris HX-19): 25 µg/mL (≈ 90.8 µM); MIC [21]: > 200 µg/mL; MIC [22]: > 200 µg/mL; MIC [23]: 200 µg/mL (≈ 726 µM); MIC [24]: 50 µg/mL (≈ 182 µM)
[C-]#[N+]C12CC3(/C=C/C(=O)N4CCC[C@H]4C(=O)OCc4ccccc4)OC3C1O2 (stereo partly drawn) [compound 32] | > 200 | > 200 | > 200 | > 200 | > 200 | 200 (≈ 526 µM) | > 200 | > 200 | > 200 | > 200 | 200 (≈ 526 µM) | 200 (≈ 526 µM) | > 100 | 200 (≈ 526 µM) | > 200 | > 100 | > 200 | > 200 | > 200 | > 200 | MIC [7]: 1.56 µg/mL (≈ 4.1 µM); MIC (Salmonella typhi 901): > 200 µg/mL; MIC (Proteus vulgaris HX-19): > 200 µg/mL; MIC [21]: > 200 µg/mL; MIC [22]: > 200 µg/mL; MIC [23]: 200 µg/mL (≈ 526 µM); MIC [24]: > 200 µg/mL; MIC [25]: > 100 µg/mL
[C-]#[N+]C12CC3(/C=C/C(=O)NC4C(=O)N5C(C(=O)OCC(=O)c6ccc(Br)cc6)=C(C)CSC45)OC3C1O2 (stereo not drawn) [compound 34] | > 100 | > 100 | > 100 | > 100 | > 100 | > 100 | > 100 | > 100 | > 100 | > 100 | > 100 | > 100 | > 100 | > 100 | > 100 | > 100 | > 100 | > 100 | > 100 | > 100 | MIC [5]: > 100 µg/mL; MIC (Salmonella typhi 901): > 100 µg/mL; MIC (Proteus vulgaris HX-19): 100 µg/mL (≈ 171 µM); MIC [21]: > 100 µg/mL; MIC [22]: > 100 µg/mL; MIC [23]: > 100 µg/mL; MIC [24]: > 100 µg/mL; MIC [25]: > 100 µg/mL
